Data on nine compounds can be found in patent EP4796530A1 (Biocells (Beijing) Biotech Co., Ltd., priority 2023, dated 2025).

One may read the IC50 as the concentration that gives 50% inhibition. A lower IC50 goes with greater potency in that assay. A word on the inhibition: it is the drop in the measured response relative to a control, in per cent. A word on the half-life: it is the time in which the quantity being followed falls by half. Low readings indicate rapid decline, high ones slow decline. In general, AUC refers to concentration integrated over time.

The target in series [1] is T1, NLRP3 (Mus musculus, UniProt Q8R4B8). The series can be described thus: Inhibition curves (IC50) of canonical NLRP3 activation in J774A.1 cells, IL-1β release. Type of series: cell-based. Set-up: The mouse macrophage cell line J774A.1 was used, and LPS was used as the first signal; host or cells: J774A.1 mouse monocyte-macrophage cell line. The settings on record: J774A.1 cell LPS+Nig activation model. The procedure: J774A.1 cells were plated in a 48-well plate at a density of 1.0×10^6 cells/mL, with 300 µL per well. Subsequently, NLRP3 was activated by LPS+ATP or LPS+Nig. […] ATP was purchased from Sigma, Cat. No.: L2654. Nig was purchased from Shanghai Yuanye Bio-Technology Co., Ltd., Cat. No.: S45490.
T1 sequence (Q8R4B8 whole entry): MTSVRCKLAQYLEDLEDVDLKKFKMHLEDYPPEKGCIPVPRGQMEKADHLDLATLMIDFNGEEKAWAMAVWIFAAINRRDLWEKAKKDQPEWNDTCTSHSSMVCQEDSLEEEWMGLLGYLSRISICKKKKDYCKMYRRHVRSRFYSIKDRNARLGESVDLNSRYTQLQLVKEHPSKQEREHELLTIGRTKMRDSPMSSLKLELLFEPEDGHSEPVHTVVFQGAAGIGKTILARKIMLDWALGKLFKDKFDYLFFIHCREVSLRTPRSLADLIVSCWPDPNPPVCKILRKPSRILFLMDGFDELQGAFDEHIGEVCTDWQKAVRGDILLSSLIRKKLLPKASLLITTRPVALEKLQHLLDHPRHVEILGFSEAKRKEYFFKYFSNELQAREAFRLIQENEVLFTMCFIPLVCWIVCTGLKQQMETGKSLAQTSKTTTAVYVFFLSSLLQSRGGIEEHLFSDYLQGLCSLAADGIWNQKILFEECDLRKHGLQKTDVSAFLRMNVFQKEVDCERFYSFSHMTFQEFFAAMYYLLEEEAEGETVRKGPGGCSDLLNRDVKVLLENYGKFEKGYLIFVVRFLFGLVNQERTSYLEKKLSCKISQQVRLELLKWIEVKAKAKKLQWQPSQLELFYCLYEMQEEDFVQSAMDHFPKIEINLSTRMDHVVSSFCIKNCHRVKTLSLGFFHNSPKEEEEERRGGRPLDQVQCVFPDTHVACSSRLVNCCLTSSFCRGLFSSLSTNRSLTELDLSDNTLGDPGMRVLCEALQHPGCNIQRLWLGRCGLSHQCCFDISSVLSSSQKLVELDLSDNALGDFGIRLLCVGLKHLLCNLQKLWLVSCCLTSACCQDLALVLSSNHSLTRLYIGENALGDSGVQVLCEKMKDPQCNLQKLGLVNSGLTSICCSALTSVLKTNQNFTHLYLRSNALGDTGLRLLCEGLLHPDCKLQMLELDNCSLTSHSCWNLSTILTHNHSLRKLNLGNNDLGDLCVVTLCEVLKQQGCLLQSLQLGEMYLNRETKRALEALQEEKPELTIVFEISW
Experimental groups: a negative control group, an LPS-alone incubation control group, an LPS+ATP/Nig positive control group, and an example compound experimental group with different concentrations.
After the plated J774A.1 cells adhering to the plate, the culture medium was replaced. For all the groups except the negative control group, the culture medium was completely replaced with cell culture medium containing 1 µg/mL LPS. The negative control group received cell culture medium. Then, all the groups were incubated overnight. 18 h later, the culture medium was replaced again. The culture medium of the example compound experimental group was completely replaced with culture medium containing different concentrations of compounds; while the negative control group, the LPS-alone incubation control group, and the LPS+ATP/Nig positive control group received cell culture medium. 1 h later, the culture mediums of the LPS+ATP/Nig positive control group and the example compound experimental group with different concentrations were completely replaced with cell culture medium containing 5 mM ATP or 10 µM Nig. 1 h later, the cell supernatants were collected for IL-1β detection.
(§1) Therefore, the relative change in the amount of IL-1β release may directly reflect NLRP3 inhibitory effect. The inhibitory effect of the compounds varies with different concentrations, and based on this, an inhibition curve can be constructed, and the inhibitory effects of the compounds were assessed by IC50.

For series [2], the target named is T2, NLRP3 (Homo sapiens, UniProt Q96P20). The series can be described thus: Inhibition curves (IC50) of canonical NLRP3 activation (LPS+Nig) in THP-1 cells, IL-1β release. Type of series: cell-based. Also on record: host or cells: THP-1 human acute monocytic leukemia cell line, PMA-differentiated. As to conditions: THP-1 cell LPS+Nig activation model. The procedure:
Nig was purchased from Shanghai Yuanye Bio-Technology Co., Ltd., Cat. No.: S45490.
The cells were incubated overnight.
as §1

For series [3], the target named is T1, NLRP3. The series can be described thus: Inhibition of canonical NLRP3 activation (LPS+ATP/Nig) in J774A.1 cells, IL-1β release by ELISA, single concentration. The settings on record: J774.A1, 1 µM compound, LPS + 5 mM ATP or 10 µM Nig, compared with the positive control, read-out: inhibition of IL-1β release. Type of series: cell-based. Set-up: The mouse macrophage cell line J774A.1 was used, and LPS was used as the first signal; host or cells: J774A.1 mouse monocyte-macrophage cell line. The procedure: J774A.1 cells were plated in a 48-well plate at a density of 1.0×10^6 cells/mL, with 300 µL per well. Subsequently, NLRP3 was activated using LPS+5 mM ATP (adenosine triphosphate) or 10 µM Nig (nigericin). […] ATP was purchased from Sigma, Cat. No.: L2654. Nig was purchased from Shanghai Yuanye Bio-Technology Co., Ltd., Cat. No.: S45490.
Experimental groups: a negative control group, an LPS-alone incubation control group, an LPS+ATP or +Nig positive control group, and an example compound experimental group.
After the plated J774A.1 cells adhering to the plate, the culture medium was replaced. For all the groups except the negative control group, the culture medium was completely replaced with cell culture medium containing 1 µg/mL LPS. The negative control group received cell culture medium. Then, all the groups were incubated overnight. 18 h later, the culture medium was replaced again. The culture medium of the example compound experimental group was completely replaced with cell culture medium containing the compounds; while the negative control group, the LPS-alone incubation control group, and the LPS+ATP/Nig positive control group received cell culture medium. 1 h later, the culture mediums of the LPS+ATP/Nig positive control group and the example compound experimental group were completely replaced with cell culture medium containing 5 mM ATP or 10 µM Nig. 1 h later, the cell supernatants were collected for IL-1β detection.
Therefore, the relative change in the amount of IL-1β release may directly reflect NLRP3 inhibitory effect.
(In general: In an ELISA, binding on a coated surface is turned into a signal by an enzyme label.)

The target of series [4] is T1, NLRP3. As to the kind of experiment: Inhibition of APOE peptide-induced NLRP3 activation in J774A.1 cells, IL-1β release. Type of series: cell-based. As to conditions: J774.A1, 10 µM compound, 30 µg/mL APOE peptide. Set-up: The mouse macrophage cell line J774A.1 was used, and LPS was used as the first signal; host or cells: J774A.1 mouse monocyte-macrophage cell line. The procedure:
J774A.1 cells were plated in a 48-well plate at a density of 1.0×10^6 cells/mL, with 300 µL per well. Subsequently, NLRP3 was activated by APOE peptide. The cell culture medium comprises: DMEM (brand: Gibco, Cat. No.: C12430500) + 10% fetal bovine serum (brand: Gibco, Cat. No.: 10099-141) + 1% sodium pyruvate (brand: Gibco, Cat. No.: 11360-070) + 1% penicillin-streptomycin solution (brand: Solarbio, Cat. No.: P1400). The J774A.1 mouse monocyte-macrophage cell line was purchased from the Cell Resource Center of the Institute of Basic Medical Sciences of Chinese Academy of Medical Sciences (Resource No. 1101MOU-PUMC000222). APOE2/3 peptide 1-151 was obtained through recombinant protein expression and purification by Biocells (Beijing) Biotech Co., Ltd. The procedures were as follows: the sequence (SEQ ID NO: 1) shown below was inserted into the pET-28A plasmid and transformed into BL-21(DE3) expression strain; the expression of target protein was induced with IPTG at a low temperature; after collecting the bacteria via centrifugation, ultrasonic disruption was performed; and after centrifugation, the supernatant was purified by nickel ion affinity chromatography (AKTA pure), and then the product was concentrated by ultrafiltration and identified by BCA+protein electrophoresis. Sequence: [formula]
Experimental groups: a negative control group, an APOE treatment control group, and an example compound experimental group.
After the plated J774A.1 cells adhering to the plate, the culture medium was replaced. The culture medium of the APOE treatment control group was replaced with cell culture medium containing 30 µg/mL APOE peptide, the culture medium of the example compound experimental group was replaced with culture medium containing 30 µg/mL APOE peptide combined with the compounds, and the negative control group received cell culture medium. Then, all the groups were incubated overnight. 18 h later, the cell supernatants were collected for IL-1β detection.
Activation of NLRP3 by APOE peptide will result in release of mature IL-1β, and the release can be inhibited by NLRP3 inhibitors. Therefore, the relative change in the amount of IL-1β release may directly reflect NLRP3 inhibitory effect.
In this experimental example, effective inhibition refers to a reduction of 70% or more in the release amount, compared with the release amount of the positive control minus the negative control.

Series [5] is described as follows: Rat plasma pharmacokinetics after intravenous administration (LC-MS). The class given is in vivo. The settings on record: SD rats, intravenous 2.5 mg/kg. The procedure:
SD rats were administered intravenously, at a dosage concentration of 2.5 mg/kg in each group. Blood was collected at the time points of 1 min, 30 min, 1 h, 2 h, 4 h, 6 h, and 24 h. The collected blood was centrifuged at 3000 rpm for 10 min at 4 °C to obtain plasma. Acetonitrile was added at a 1:3 volume ratio of plasma: acetonitrile to precipitate proteins. After centrifugation, the supernatant was collected and filtered. The concentration of the compound was detected using LC-MS (Agilent 1260-G6125, SIM mode).
(§2) Experimental groups: a vehicle control group, and a dosing group.

The nature of series [6]: Mouse pharmacokinetics after intravenous administration (plasma and brain, LC-MS). The class given is in vivo. The settings on record: C57 mice, intravenous 5 mg/kg; for concentration at 120 min: brain after cardiac perfusion, read-out: brain drug concentration at 120 min; for half-life / AUC: plasma; for AUC: read-out: area under the curve (AUC) from 1 to 120 min. The procedure: C57 mice were administered intravenously, at a dosage concentration of 5 mg/kg in each group. Retro-orbital blood collection was performed on the mice at 1 min, 30 min, 1 h, and 2 h post-dosing. The collected blood was centrifuged at 3000 rpm for 10 min at 4 °C to obtain plasma. Acetonitrile was added at a 1:3 volume ratio of plasma: acetonitrile to precipitate proteins. After centrifugation, the supernatant was collected and filtered. The concentration of the compound was detected using LC-MS (Agilent 1260-G6125, SIM mode). In addition, 2 h after drug injection, the mice were subjected to cardiac perfusion and then their brains were harvested. Following tissue homogenization and centrifugation, the supernatant was collected. Acetonitrile was added at a 1:3 volume ratio of supernatant: acetonitrile to precipitate proteins. After centrifugation, the supernatant was collected and filtered. The concentration of the compound was detected using LC-MS (Agilent 1260-G6125, SIM mode).
as §2

The target in series [7] is T2, NLRP3. The series can be described thus: Inhibition of canonical NLRP3 activation (LPS+Nig) in PMA-differentiated THP-1 cells, IL-1β release, single concentration. As to conditions: 1 µM compound, FIG. 6 legend.
Method: THP-1 cells were plated in a 96-well plate at a density of 1.0×10^6 cells/mL, with 100 µL per well. Subsequently, PMA-induced differentiation and cell resting were performed, followed by activation of NLRP3 by LPS+Nig.
Experimental groups: a negative control group, an LPS-alone incubation control group, an LPS+Nig positive control group, and a 1 µM example compound experimental group.
100 ng/mL PMA was added at the same time as THP-1 cells were plated. After incubation for 24 h, the cells were washed three times with PBS, and then the culture medium was changed and the cells were allowed to rest for 24 h. Then the culture medium was completely replaced with medium containing 1 µg/mL LPS. The cells were incubated overnight. On the next day, the wells to which LPS was added completely received culture medium, and then the wells were incubated with specified example compounds for 1 h.
In this experimental example, effectively inhibiting IL-1β release means that the release amount in each group is reduced by 50% or more compared with that of the positive control.
Series [8] concerns the target T2, NLRP3. The series can be described thus: Inhibition curves (IC50) of canonical NLRP3 activation in healthy human whole blood, IL-1β release. The class given is cell-based. The settings on record: LPS+1 mM ATP canonical activation model.
Method: 10 mL of human whole blood was collected intravenously aseptically, and plated into a 96-well plate, with 198 µL per well. Then, 2 µL of 100× gradient dilutions of the example compounds at specified concentrations were added, immediately followed by the addition of 10 µL of 21 µg/mL LPS gradient dilution. 3 h later, nigericin with a working concentration of 5 µM or 1 mM ATP was added. After stimulation for 1 h, the whole blood was collected and centrifuged to collect the supernatant. IL-1β in the sample supernatant was detected by ELISA method.
Experimental groups: a negative control group, an LPS-alone incubation control group, an LPS+Nig/ATP positive control group, and a 1 µM example compound experimental group.
10 mL of human whole blood was collected intravenously aseptically. The anticoagulant heparin sodium was added preemptively into a 50 mL centrifuge tube. The collected whole blood was directly plated in a 96-well plate, with 198 µL per well. […] IL-1β in the sample supernatant was detected by ELISA method.
Therefore, the relative change in the amount of IL-1β release may directly reflect NLRP3 inhibitory effect. The inhibitory effect of the compounds varies with different concentrations, and based on this, an inhibition curve can be constructed, and the inhibitory effect of the compounds were assessed by IC50.

SMILES strings stand for the structures.

T2 sequence (Q96P20 whole entry): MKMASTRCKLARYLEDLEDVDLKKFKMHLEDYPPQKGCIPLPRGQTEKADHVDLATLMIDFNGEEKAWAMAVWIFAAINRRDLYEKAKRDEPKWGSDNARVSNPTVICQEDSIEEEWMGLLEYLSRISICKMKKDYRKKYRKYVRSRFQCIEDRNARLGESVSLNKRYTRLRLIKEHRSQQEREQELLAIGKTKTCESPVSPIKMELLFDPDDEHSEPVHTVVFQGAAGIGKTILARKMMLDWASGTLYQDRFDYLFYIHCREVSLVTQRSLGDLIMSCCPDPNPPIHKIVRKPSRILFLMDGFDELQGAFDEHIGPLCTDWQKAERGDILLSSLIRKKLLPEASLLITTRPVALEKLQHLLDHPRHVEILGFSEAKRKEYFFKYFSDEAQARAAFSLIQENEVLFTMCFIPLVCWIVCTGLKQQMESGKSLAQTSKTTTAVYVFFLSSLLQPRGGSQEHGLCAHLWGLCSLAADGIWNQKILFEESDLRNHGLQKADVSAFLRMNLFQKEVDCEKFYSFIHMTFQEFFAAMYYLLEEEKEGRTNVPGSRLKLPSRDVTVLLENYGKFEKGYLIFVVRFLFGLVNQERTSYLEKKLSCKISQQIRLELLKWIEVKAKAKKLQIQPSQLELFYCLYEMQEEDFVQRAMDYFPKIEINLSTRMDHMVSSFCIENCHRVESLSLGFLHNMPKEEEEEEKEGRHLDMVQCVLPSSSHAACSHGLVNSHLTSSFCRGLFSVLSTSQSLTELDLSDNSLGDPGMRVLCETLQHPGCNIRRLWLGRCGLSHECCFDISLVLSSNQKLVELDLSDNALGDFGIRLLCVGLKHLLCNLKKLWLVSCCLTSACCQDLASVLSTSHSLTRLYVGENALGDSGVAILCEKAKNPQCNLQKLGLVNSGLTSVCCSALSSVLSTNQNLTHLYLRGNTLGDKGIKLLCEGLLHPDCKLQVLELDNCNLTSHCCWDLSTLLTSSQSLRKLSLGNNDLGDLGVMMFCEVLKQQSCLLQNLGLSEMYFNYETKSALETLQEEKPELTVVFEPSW

As to `CN(C)C1CCOc2c1cccc2S(=O)(=O)NC(=O)Nc1c2c(cc3c1CCC3)CCC2` (stereo not shown) [Example 32, 4-(dimethylamino)-N-((1,2,3,5,6,7-hexahydro-s-indacen-4-yl)carbamoyl)chromane-8-sulfonamide], the half-maximal inhibitory concentration (IC50) in series [1] was found to be 390 nM.
For the compound `Cc1c(S(=O)(=O)NC(=O)Nc2c3c(cc4c2CCC4)CCC3)ccc(O)c1CN(C)C` [Example 30, 3-((dimethylamino)methyl)-N-((1,2,3,5,6,7-hexahydro-s-indacen-4-yl)carbamoyl)-4-hydroxy-2-methylbenzenesulfonamide], the figures for the IC50 in series [2] and in series [1] were 36.7 nM and 144 nM, respectively.
As for `CN(C)Cc1cc(S(=O)(=O)NC(=O)Nc2c3c(cc4c2CCC4)CCC3)c(F)cc1N` [Example 22, 4-amino-5-((dimethylamino)methyl)-2-fluoro-N-((1,2,3,5,6,7-hexahydros-indacen-4-yl)carbamoyl)benzenesulfonamide], the inhibition at 1 µM in series [3] is above 80%. The inhibition at 10 µM in series [4] was at least 70%. Also, in series [1], the 50% inhibitory concentration (IC50) was determined as 127 nM.
Regarding `CC(C)(O)c1coc(S(=O)(=O)NC(=O)Nc2c3c(cc4c2CCC4)CCC3)c1` [MCC950, reference compound], the half-life in series [5] was 0.267 h; in series [6] it was 1.28 h. Besides, the area under the curve (AUC) stood at 4380 ng·h/mL in series [5] (read-out: AUC from 1 to 1440 min) and 29600 ng·h/mL in series [6]. Also, the concentration at 120 min in series [6] was 0 ng/mL.
As for `CN(C)Cc1cccc(S(=O)(=O)NC(=O)Nc2c3c(cc4c2CCC4)CCC3)c1Cl` [Example 1, 2-chloro-3-((dimethylamino)methyl)-N-((1,2,3,5,6,7-hexahydro-s-indacen-4-yl)carbamoyl)benzenesulfonamide], the inhibition at 1 µM in series [3] was above 80%. The compound also showed an IC50 in series [1] of 64.6 nM.
As to `Cc1c(CN(C)C)cccc1S(=O)(=O)NC(=O)Nc1c2c(cc3c1CCC3)CCC2` [Example 26, 3-((dimethylamino)methyl)-N-((1,2,3,5,6,7-hexahydro-s-indacen-4-yl)carbamoyl)-2-methylbenzenesulfonamide], the inhibition at 1 µM in series [3] is above 80%. The inhibition at 10 µM in series [4] is at least 70%. The IC50 in series [1] is 81.6 nM.
For `CN(C)Cc1cccc(S(=O)(=O)NC(=O)Nc2c3c(cc4c2CCC4)CCC3)c1O` [Example 27, 3-((dimethylamino)methyl)-N-((1,2,3,5,6,7-hexahydro-s-indacen-4-yl)carbamoyl)-2-hydroxybenzenesulfonamide], in series [3], the inhibition at 1 µM was above 80%. In series [6], the concentration at 120 min was determined as 96 ng/mL, the half-life is 2.88 h and the AUC stood at 47300 ng·h/mL. The half-maximal inhibitory concentration (IC50) in series [1] is 79.6 nM. In series [7], the “reduction in release amount compared with that of the positive control minus the LPS-alone control” value is at least 75%. The half-inhibitory concentration (IC50) in series [8] stood at 55800 nM.
Regarding `CN(C)Cc1cc(S(=O)(=O)NC(=O)Nc2c3c(cc4c2CCC4)CCC3)cc(F)c1O` [Example 17, 3-((dimethylamino)methyl)-5-fluoro-N-((1,2,3,5,6,7-hexahydro-s-indacen-4-yl)carbamoyl)-4-hydroxybenzenesulfonamide], the inhibition at 1 µM in series [3] is above 80%. Further, in series [6], the concentration at 120 min amounted to 184 ng/mL, the half-life amounted to 3.85 h and the exposure (AUC) was 15500 ng·h/mL. Moreover, in series [4], the inhibition at 10 µM was at least 70%. The same compound showed an IC50 in series [1] of 194 nM. Also, in series [7], the “reduction in release amount compared with that of the positive control minus the LPS-alone control” value is at least 75%.
For the compound `CN(C)Cc1c(O)ccc(S(=O)(=O)NC(=O)Nc2c3c(cc4c2CCC4)CCC3)c1F` [Example 31, 3-((dimethylamino)methyl)-2-fluoro-N-((1,2,3,5,6,7-hexahydro-s-indacen-4-yl)carbamoyl)-4-hydroxybenzenesulfonamide], the half-inhibitory concentration (IC50) in series [1] is 203 nM.
